Laboratory results: ChEMBL document CHEMBL5537109, “Natural products as potential lead compounds to develop new antiviral drugs over the past decade” (Eur J Med Chem, 2023)

Target: Neuraminidase (Influenza A virus (A/Puerto Rico/8/1934(H1N1)), UniProt P03468, H274Y)
Assay: Inhibition of influenza A virus H1N1 neuraminidase H274Y mutant

Compound C[C@@H]1C[C@H](C)C(=O)[C@@H]2O[C@@H]2[C@@H]2[C@@H](O)[C@@H]3OC4=C(C(=O)O[C@@]42C[C@H]3C)C1=O has an IC50 greater than 44.2 µM.
